This note sets out measurements from patent publication US7498406B2, “Substantially cell membrane impermeable compound and use thereof” (priority 1999, dated 2009).

Series [1] deals with BAE. Nature of the series: Proliferation of cultured cells, 72 hr. In kind it is cell-based, bovine. The following applies: for IC50: 72 hr. On the procedure:
BCE (Folkman et al. 1979), BAE, BxPC-3 (ATCC, Bethesda, Md.), HT1080 (Jiang et al., 1999), 3T3 (ATCC, Bethesda, Md.) and BVSM (Hogg et al., 1997) cells were harvested and cultured as indicated. Cells (0.5 mL of 30,000 or 100,000 cells per mL) were seeded into gelatinized 24-well culture plates (Corning Costar, Corning, N.Y.) in Dulbecco's Modified Eagle's Medium (DMEM, JHR Bioscience, Lenexa, Kans.) containing 10% fetal calf serum (FCS, Intergen Comp., Purchase, N.Y.) and 1% Glutamine Pen-Strep (GPS, Irvine Scientific, Santa Ana, Va.) and allowed to attach for 24 hr in 10% CO2 at 37° C. The media was then replaced with DMEM and 1% GPS containing 0 to 1 mM GSAO or GSAA and either 5% bovine calf serum (BCS, HyClone, Logan, Utah) and 1 ng per mL FGF-2 (Genzyme, Cambridge, Mass.) or 5% BCS and 10 ng per mL VEGF (Genzyme, Cambridge, Mass.) for BCE cells, 5% or 10% BCS for BAE cells, 5% BCS for BVSM cells, and 5% FCS for BxPC-3, HT1080 and 3T3 cells. Cells were cultured for 0 to 72 hr in 10% CO2 at 37° C. then dispersed in trypsin/EDTA (GibcoBRL, Granc Island, N.Y.), resuspended in Coulter balanced electrolyte solution and counted with a Z1 Coulter counter (Coulter Corp., Miami, Fla.) in all experiments there were two control wells containing DMEM with 1% GPS and either 5% BCS for BCE cells, 2% BCS for BAE and BVSM cells, or 2% FCS for BxPC-3, HT1080 and 3T3 cells. These wells represented no to limited proliferation.

In series [2] the test system is 3T3. Nature of the series: Proliferation of cultured cells, 72 hr. Type of series: cell-based, murine. Particulars: 5% FCS, 0 to 1 mM. On the procedure: FIG. 19. Effect of GSAO on proliferation of non-endothelial cells. 15,000 BxPC-3 (part A), HT1080 (part B), 3T3 (part C) or BVSM (part D) cells per well were seeded into gelatinised 24-well culture plates and allowed to attach for 24 hr. The media was then replaced with DMEM containing 0 to 1 mM GSAO or GSAA and either 5% BCS (part D) or 5% FCS (parts A, B and C). Cells were cultured for 72 hr and then dispersed and counted. The dotted lines indicate the cell number in control wells containing DMEM and 2% BCS (part D) or 2% FCS (parts A, B and C) which represented no to limited proliferation. The data points and errors represent the mean and range of duplicate wells.
BCE (Folkman et al. 1979), BAE, BxPC-3 (ATCC, Bethesda, Md.), HT1080 (Jiang et al., 1999), 3T3 (ATCC, Bethesda, Md.) and BVSM (Hogg et al., 1997) cells were harvested and cultured as indicated. […] Cells were cultured for 0 to 72 hr in 10% CO2 at 37° C. then dispersed in trypsin/EDTA (GibcoBRL, Granc Island, N.Y.), resuspended in Coulter balanced electrolyte solution and counted with a Z1 Coulter counter (Coulter Corp., Miami, Fla.) in all experiments there were two control wells containing DMEM with 1% GPS and either 5% BCS for BCE cells, 2% BCS for BAE and BVSM cells, or 2% FCS for BxPC-3, HT1080 and 3T3 cells. […]

Series [3] relates to BxPC-3 tumours. Kind of series: Tumour growth, oral administration in water. Particulars: ~10 mg per kg per day in water. In kind it is in vivo, SCID mice. On the procedure: FIG. 28. Inhibition of human pancreatic carcinoma and murine Lewis lung tumour growth by oral administration of GSAO. BxPC-3 or Lewis lung tumours were established in the proximal midline of female 7 to 9 week old SCID or C57Bl6/J mice, respectively, SCID mice bearing ˜0.5 g BxPC-3 tumours or C57Bl6/J mice bearing 0.1 g Lewis lung tumours were randomised into two groups (n=2 for BxPC-3 and n=3 for Lewis lung) and treated with either GSAA or GSAO (0.05 mg per mL) in their water. Mice drink ˜5 mL of water per day and therefore consumed ˜10 mg GSAO or GSM per kg per day. The water contained 100 mM glycine to minimise oxidation of GSAO. Tumour volume and animal weight was measured every 3 days. The data points and errors represent the mean and SE of the tumour volumes.
SCID mice bearing subcutaneous human pancreatic carcinoma tumours or C57Bl6/J mice bearing subcutaneous murine Lewis lung tumours were fed either ˜10 mg per kg per day GSAO or GSAA in their water.

Series [4] has as its system chick CAM. Nature of the series: Chick chorioallantoic membrane (CAM) angiogenesis. Type of series: in vivo. Particulars: for inhibition of CAM angiogenesis (avascular zones): 5, 10 or 50 μg per pellet, 48 hr; for adverse effect on the wellbeing of the chick embryo: up to 50 μg per pellet. How it is done: FIG. 22. Inhibition of CAM angiogenesis by GSAO. Fertilised 3 day-old white Leghorn eggs were cracked, the embryos placed in petri dishes and incubated for 3 days. Methylcellulose discs containing 5, 10 or 50 μg of either GSAA or GSAO were then applied to the CAM of individual embryos and incubated for 48 hr. The CAMs were scored for no obvious effect or inhibition of angiogenesis as defined by avascular zones. Photographs of CAM's after incubation with discs containing 10 μg of either GSAA (top) or GSAO (bottom) is shown in the left hand panel. The dotted circle indicates the placement of the disc.
The chick CAM assay has been used for the detection and analysis of angiogenesis inhibition (Nguyen et al., 1994). Fertilised 3 day-old white Leghorn eggs (Spafas, Norwich, Conn.) were cracked, the embryos with intact yolks placed in 20×100 mm petri dishes and incubated for 3 days at 37° C. and 3% CO2 (Folkman, 1995). Methylcellulose (Fisher Scientific, Fair Lawn, N.J.) discs containing 5, 10 or 50 μg of either GSAA or GSAO were then applied to the CAM of individual embryos and incubated for 48 hr at 37° C. and 3% CO2. The discs were made by desiccation of GSAA or GSAO in 10 μl of 0.45% methycellulose on teflon rods. The CAMs were observed using a stereomicroscope and scored for no obvious effect or inhibition of CAM angiogenesis as defined by avascular zones. On some occasions CAM blood vessels were injected with India ink and photographed.

“Also recorded” adds a separate entry of the source.

Regarding `N[C@@H](CCC(=O)N[C@@H](CSCC(=O)Nc1ccc([As](=O)(O)O)cc1)C(=O)NCC(=O)O)C(=O)O` [GSAA, 4-(N-(S-glutathionylacetyl)amino)phenylarsonic acid, reference compound], the “effect on proliferation of BAE cells” value in series [1] (not shown) is listed as “did not effect either proliferation or viability”. Moreover, the “Proliferation IC50” value in series [2] is reported as “no significant effect”. In series [3], the “growth of pancreatic tumours” value is “no significant effect”. Also, in series [4], the “inhibition of CAM angiogenesis (avascular zones)” value is listed as “did not inhibit CAM angiogenesis; also recorded: no effects on CAM angiogenesis” and the “adverse effect on the wellbeing of the chick embryo” value was “Neither GSAA nor GSAO had any apparent adverse effect”.
On to `NC(CCC(=O)NC(CSCC(=O)Nc1ccc([As]=O)cc1)C(=O)NCC(=O)O)C(=O)O` (centres unmarked) [GSAO, 4-(N-(S-glutathionylacetyl)amino)-phenylarsenoxide], for which the IC50 in series [1] (5% BCS) is ~20 nM; in series [1] (10% BCS), ~200 nM. Also, the “Proliferation IC50” value in series [2] is “did not affect the proliferation; also recorded: No effect”. For the same compound, the “growth of pancreatic tumours” value in series [3] is recorded as “stopped growing”. The “inhibition of CAM angiogenesis (avascular zones)” value in series [4] is “inhibited angiogenesis in the CAM in a concentration-dependent manner”. In series [4], the “adverse effect on the wellbeing of the chick embryo” value is “Neither GSAA nor GSAO had any apparent adverse effect”.

For orientation: IC50 means the concentration at which inhibition is half-maximal. Higher therefore signals weaker potency.
